Measured values taken from patent US12358907B2, “Substituted pyrrolidine amides III” (GRÜNENTHAL GMBH, priority 2019, dated 2025).

biological target: glucocorticoid receptor (GAL4 DBD-GR) (Homo sapiens (Human), UniProt P04150); experiment: GR cell-based assays (GRE agonist / GRE antagonist), CHO-Gal4/GR luciferase reporter; conditions: CHO-Gal4/GR reporter cells, agonist mode (EC50) or antagonist mode against beclometasone (IC50), 6 hour incubation
In short: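 CHO cells stably carrying GAL4 DBD-GR ligand-binding-domain fusion and a GAL4-UAS firefly luciferase reporter were treated in Opti-MEM with 8 half-log concentrations from 10 μM to 0.003 μM (0.5% DMSO, quadruplicates). Antagonist mode measured repression of beclomethasone-induced signal. Luminescence after lysis gave EC50 or IC50.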

glucocorticoid receptor (GAL4 DBD-GR), sequence (P04150 524-758): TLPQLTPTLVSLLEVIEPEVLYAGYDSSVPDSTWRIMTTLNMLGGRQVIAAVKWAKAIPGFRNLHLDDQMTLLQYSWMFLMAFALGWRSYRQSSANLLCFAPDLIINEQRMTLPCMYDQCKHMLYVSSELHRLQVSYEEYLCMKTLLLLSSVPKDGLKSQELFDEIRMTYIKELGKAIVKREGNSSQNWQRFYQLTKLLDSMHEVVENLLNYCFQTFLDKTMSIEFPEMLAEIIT

| Structure (SMILES) | IC50 |
| --- | --- |
| C[C@@]1(CC(F)F)C(=O)N(c2ccc3c(cnn3-c3ccc(F)cc3)c2)[C@H](c2ccccc2)[C@H]1NC(=O)C1CC1 (racemic) [Example 136, N-(rac(2R,3S,4S)-4-(2,2-difluoroethyl)-1-(1-(4-fluorophenyl)-1H-indazol-5-yl)-4-methyl-5-oxo-2-phenylpyrrolidin-3-yl)cyclopropanecarboxamide] | < 100 nM |
| O=C(N[C@H]1C(CCc2ccccc2)C(=O)N(c2ccc3c(cnn3-c3ccc(F)cc3)c2)[C@@H]1c1ccccc1)C1CC1 (single isomer, unassigned) [Example 130] | 100 to 1000 nM |
| Cn1ccc(C(=O)N[C@@H]2[C@@H](c3ccccc3)N(c3ccc4c(cnn4-c4ccc(F)cc4)c3)C(=O)C2(C)C)n1 [Example 37, N-((2R,3S)-1-(1-(4-fluorophenyl)-1H-indazol-5-yl)-4,4-dimethyl-5-oxo-2-phenylpyrrolidin-3-yl)-1-methyl-1H-pyrazole-3-carboxamide] | < 100 nM |

Other lines, results leading:

| IC50 | Structure (SMILES) |
| --- | --- |
| < 100 nM | CC1(C)C(=O)N(c2ccc3c(cnn3-c3ccc(F)cc3)c2)[C@H](c2ccccc2)[C@H]1NS(=O)(=O)C1CC1 [Example 35a, N-((2R,3S)-1-(1-(4-fluorophenyl)-1H-indazol-5-yl)-4,4-dimethyl-5-oxo-2-phenylpyrrolidin-3-yl)cyclopropanesulfonamide] |
| < 100 nM | Cc1ncsc1C(=O)N[C@@H]1[C@@H](c2ccccc2)N(c2ccc3c(cnn3-c3ccc(F)cc3)c2)C(=O)C1(C)C [Example 38b, N-((2R,3S)-1-(1-(4-fluorophenyl)-1H-indazol-5-yl)-4,4-dimethyl-5-oxo-2-phenylpyrrolidin-3-yl)-4-methylthiazole-5-carboxamide] |
| < 100 nM | Cc1scnc1C(=O)N[C@@H]1[C@@H](c2ccccc2)N(c2ccc3c(cnn3-c3ccc(F)cc3)c2)C(=O)C1(C)C [Example 39a, N-((2R,3S)-1-(1-(4-fluorophenyl)-1H-indazol-5-yl)-4,4-dimethyl-5-oxo-2-phenylpyrrolidin-3-yl)-5-methylthiazole-4-carboxamide] |
| < 100 nM | Cc1nocc1C(=O)N[C@@H]1[C@@H](c2ccccc2)N(c2ccc3c(cnn3-c3ccc(F)cc3)c2)C(=O)C1(C)C [Example 40a, N-((2R,3S)-1-(1-(4-fluorophenyl)-1H-indazol-5-yl)-4,4-dimethyl-5-oxo-2-phenylpyrrolidin-3-yl)-3-methylisoxazole-4-carboxamide] |
| < 100 nM | CC1(C)C(=O)N(c2ccc3c(cnn3-c3ccc(F)cc3)c2)[C@H](c2ccccc2)[C@H]1NC(=O)c1cccnc1 [Example 42a, N-((2R,3S)-1-(1-(4-fluorophenyl)-1H-indazol-5-yl)-4,4-dimethyl-5-oxo-2-phenylpyrrolidin-3-yl)nicotinamide] |
| < 100 nM | CC1(C)C(=O)N(c2ccc3c(cnn3-c3ccc(F)cc3)c2)[C@H](c2ccccc2)[C@H]1NC(=O)c1ncccn1 [Example 43a, N-((2R,3S)-1-(1-(4-fluorophenyl)-1H-indazol-5-yl)-4,4-dimethyl-5-oxo-2-phenylpyrrolidin-3-yl)pyrimidine-2-carboxamide] |

same assay, conditions: read-out: IC50 or EC50

| Structure (SMILES) | IC50 |
| --- | --- |
| C[C@H]1C(=O)N(c2ccc3c(cnn3-c3ccc(F)cc3)c2)[C@H](c2ccc(Cl)s2)[C@H]1NC(=O)C1CC1 (racemic) [Example 124, N-[rac-(2S,3S,4R)-2-(5-Chloro-thiophen-2-yl)-1-[1-(4-fluorophenyl)-1H-indazol-5-yl]-4-methyl-5-oxo-pyrrolidin-3-yl]-cyclopropanecarboxylic acid amide] | < 100 nM |
| C[C@H]1C(=O)N(c2ccc3c(cnn3-c3ccc(F)cc3)c2)[C@H](c2ccc(Cl)s2)[C@H]1NC(=O)C(C)(F)F (racemic) [Example 125, N-[rac-(2S,3S,4R)-2-(5-Chloro-thiophen-2-yl)-1-[1-(4-fluorophenyl)-1H-indazol-5-yl]-4-methyl-5-oxo-pyrrolidin-3-yl]-2,2-difluoro-propionamide] | < 100 nM |
| CC[C@@H]1C(=O)N(c2ccc3c(cnn3-c3ccc(F)cc3)c2)[C@H](c2ccccc2)[C@H]1NC(=O)C1CC1 (racemic) [Example 126, N-[rac-(2R,3S,4S)-4-Ethyl-1-[1-(4-fluorophenyl)-1H-indazol-5-yl]-5-oxo-2-phenyl-pyrrolidin-3-yl]-cyclopropanecarboxylic acid amide] | < 100 nM |
| C[C@]1(F)C(=O)N(c2ccc3c(cnn3-c3ccc(F)cc3)c2)[C@H](c2ccccc2)[C@H]1NC(=O)C1CC1 (racemic) [Example 128, N-[rac-(2R,3R,4R)-4-Fluoro-1-[1-(4-fluorophenyl)-1H-indazol-5-yl]-4-methyl-5-oxo-2-phenyl-pyrrolidin-3-yl]-cyclopropanecarboxylic acid amide] | 100 to 1000 nM |
| C[C@@]1(F)C(=O)N(c2ccc3c(cnn3-c3ccc(F)cc3)c2)[C@H](c2ccccc2)[C@H]1NC(=O)C1CC1 (racemic) [Example 129, N-[rac-(2R,3R,4S)-4-Fluoro-1-[1-(4-fluorophenyl)-1H-indazol-5-yl]-4-methyl-5-oxo-2-phenyl-pyrrolidin-3-yl]-cyclopropanecarboxylic acid amide] | < 100 nM |
| COc1ccc([C@@H]2[C@@H](NC(=O)C3CC3)[C@H](C)C(=O)N2c2ccc3c(cnn3-c3ccc(F)cc3)c2)cc1 (racemic) [Example 133, N-[rac-(2R,3S,4S)-1-[1-(4-Fluorophenyl)-1H-indazol-5-yl]-2-(4-methoxyphenyl)-4-methyl-5-oxo-pyrrolidin-3-yl]-cyclopropanecarboxylic acid amide] | 100 to 1000 nM |
| CC[C@@]1(C)C(=O)N(c2ccc3c(cnn3-c3ccc(F)cc3)c2)[C@H](c2ccccc2)[C@H]1NC(=O)C1CC1 (racemic) [Example 134, N-(rac-(2R,3S,4R)-4-ethyl-1-(1-(4-fluorophenyl)-1H-indazol-5-yl)-4-methyl-5-oxo-2-phenylpyrrolidin-3-yl)cyclopropanecarboxamide] | 100 to 1000 nM |
| CC[C@@H]1[C@@H](NC(=O)C2CC2)[C@@](F)(Cc2ccccc2)C(=O)N1c1ccc2c(cnn2-c2ccc(F)cc2)c1 (racemic) [Example 137, N-(rac-(2R,3R,4S)-4-benzyl-2-ethyl-4-fluoro-1-(1-(4-fluorophenyl)-1H-indazol-5-yl)-5-oxopyrrolidin-3-yl)cyclopropanecarboxamide] | < 100 nM |
| C[C@@]1(CC(F)F)C(=O)N(c2ccc3c(cnn3-c3ccc(F)cc3)c2)[C@H](c2ccccc2)[C@H]1NC(=O)C1CC1 (racemic) [Example 148, N-(rac-(2R,3S,4S)-4-(2,2-difluoroethyl)-1-(1-(4-fluorophenyl)-1H-indazol-5-yl)-4-methyl-5-oxo-2-phenylpyrrolidin-3-yl)cyclopropanecarboxamide] | < 100 nM |
| C[C@@]1(CC2CC2)C(=O)N(c2ccc3c(cnn3-c3ccc(F)cc3)c2)[C@H](c2ccccc2)[C@H]1NC(=O)C1CC1 (racemic) [Example 149, N-(rac-(2R,3S,4S)-4-(cyclopropylmethyl)-1-(1-(4-fluorophenyl)-1H-indazol-5-yl)-4-methyl-5-oxo-2-phenylpyrrolidin-3-yl)cyclopropanecarboxamide] | < 100 nM |
| O=C(N[C@H]1C(CCc2ccccc2)C(=O)N(c2ccc3c(cnn3-c3ccc(F)cc3)c2)[C@@H]1c1ccccc1)C1CC1 (single isomer, unassigned) [Example 127] | 100 to 1000 nM |
| CC1(C)C(=O)N(c2ccc3c(cnn3-c3ccc(F)cc3)c2)[C@H](c2ccccc2)[C@H]1NS(C)(=O)=O [Example 34a, N-((2R,3S)-1-(1-(4-fluorophenyl)-1H-indazol-5-yl)-4,4-dimethyl-5-oxo-2-phenylpyrrolidin-3-yl)methanesulfonamide] | < 100 nM |
| CC1(C)C(=O)N(c2ccc3c(cnn3-c3ccc(F)cc3)c2)[C@@H](c2ccccc2)[C@@H]1NS(C)(=O)=O [Example 34b, N-((2S,3R)-1-(1-(4-fluorophenyl)-1H-indazol-5-yl)-4,4-dimethyl-5-oxo-2-phenylpyrrolidin-3-yl)methanesulfonamide] | 100 to 1000 nM |

Now from value to compound:

| IC50 | Structure (SMILES) |
| --- | --- |
| 100 to 1000 nM | CC1(C)C(=O)N(c2ccc3c(cnn3-c3ccc(F)cc3)c2)[C@H](c2ccccc2)[C@H]1NC(=O)c1cnco1 [Example 36a, N-((2R,3S)-1-(1-(4-fluorophenyl)-1H-indazol-5-yl)-4,4-dimethyl-5-oxo-2-phenylpyrrolidin-3-yl)oxazole-5-carboxamide] |
| 100 to 1000 nM | CC1(C)C(=O)N(c2ccc3c(cnn3-c3ccc(F)cc3)c2)[C@@H](c2ccccc2)[C@@H]1NC(=O)c1cnco1 [Example 36b, N-((2S,3R)-1-(1-(4-fluorophenyl)-1H-indazol-5-yl)-4,4-dimethyl-5-oxo-2-phenylpyrrolidin-3-yl)oxazole-5-carboxamide] |
| 100 to 1000 nM | Cc1ncsc1C(=O)N[C@H]1[C@H](c2ccccc2)N(c2ccc3c(cnn3-c3ccc(F)cc3)c2)C(=O)C1(C)C [Example 38a, N-((2S,3R)-1-(1-(4-fluorophenyl)-1H-indazol-5-yl)-4,4-dimethyl-5-oxo-2-phenylpyrrolidin-3-yl)-4-methylthiazole-5-carboxamide] |
| 100 to 1000 nM | Cc1nocc1C(=O)N[C@H]1[C@H](c2ccccc2)N(c2ccc3c(cnn3-c3ccc(F)cc3)c2)C(=O)C1(C)C [Example 40b, N-((2S,3R)-1-(1-(4-fluorophenyl)-1H-indazol-5-yl)-4,4-dimethyl-5-oxo-2-phenylpyrrolidin-3-yl)-3-methylisoxazole-4-carboxamide] |
| 1000 to 15000 nM | Cn1cc(C(=O)N[C@H]2[C@H](c3ccccc3)N(c3ccc4c(cnn4-c4ccc(F)cc4)c3)C(=O)C2(C)C)cn1 [Example 41b, N-((2S,3R)-1-(1-(4-fluorophenyl)-1H-indazol-5-yl)-4,4-dimethyl-5-oxo-2-phenylpyrrolidin-3-yl)-1-methyl-1H-pyrazole-4-carboxamide] |
| 100 to 1000 nM | CC1(C)C(=O)N(c2ccc3c(cnn3-c3ccc(F)cc3)c2)[C@@H](c2ccccc2)[C@@H]1NC(=O)c1cccnc1 [Example 42b, N-((2S,3R)-1-(1-(4-fluorophenyl)-1H-indazol-5-yl)-4,4-dimethyl-5-oxo-2-phenylpyrrolidin-3-yl)nicotinamide] |
